According to the NIST ThermoML archive (doi:10.1021/je200093f):
Several values for one entry are separate records, joined by “and”; a condition that tells them apart may be missing. Identical values can stand only once.

Assays:
[1] = 298.15 K; 101.33 kPa; Liquid; Vibrating tube method
[2] = excess molar enthalpy (molar enthalpy of mixing); xn = mol fraction of the nth substance listed; details: 298.15 K, 101 kPa, Liquid, Calvet calorimetry
[3] = xn = mol fraction of the nth substance listed; details: 298.15 K, 101 kPa, Liquid, Vibrating tube method

Cn1ccnc1 [1-methylimidazole]
Details	mass density [kg/m3]
[1]	1031.14

Cn1ccnc1 [1-methylimidazole] + CO
Details	excess molar enthalpy, x1 = 0.005084	excess molar enthalpy, x1 = 0.007607 [kcal/mol]	excess molar enthalpy, x1 = 0.01012 [kcal/mol]	excess molar enthalpy, x1 = 0.01261 [kcal/mol]	excess molar enthalpy, x1 = 0.0151 [kcal/mol]	mass density, x1 = 0.005084	mass density, x1 = 0.007607	mass density, x1 = 0.01012	mass density, x1 = 0.01261	mass density, x1 = 0.0151
[2]	-0.00838 kcal/mol and -0.00841 kcal/mol	-0.0126	-0.0167	-0.0208	-0.0249	–	–	–	–	–
[3]	–	–	–	–	–	789.231 kg/m3 and 789.234 kg/m3	790.606 kg/m3 and 790.615 kg/m3	791.972 kg/m3 and 791.975 kg/m3	793.304 kg/m3 and 793.323 kg/m3	794.617 kg/m3 and 794.633 kg/m3

Cn1ccnc1 [1-methylimidazole] + O
Details	excess molar enthalpy, [2] [kcal/mol]	mass density, [3] [kg/m3]
x1 = 0.001133	-0.00255	997.279
x1 = 0.001134	-0.00254	997.281
x1 = 0.002264	-0.00507	997.513
x1 = 0.002265	-0.00505	997.514
x1 = 0.003392	-0.00759	997.75
x1 = 0.003394	-0.00757	997.75
x1 = 0.004518	-0.0101	997.985
x1 = 0.00452	-0.01	997.986
x1 = 0.005642	-0.0126	998.222
x1 = 0.005644	-0.0125	998.246
x1 = 0.006765	-0.015	998.459
x1 = 0.006766	-0.015	998.483

Cc1cccc(C)n1 [2,6-dimethylpyridine]
Details	mass density [kg/m3]
[1]	918.19

Cc1cccc(C)n1 [2,6-dimethylpyridine] + CO
Details	excess molar enthalpy, [2]	mass density, [3]
x1 = 0.001741	-0.00321 kcal/mol and -0.00319 kcal/mol	–
x1 = 0.003476	-0.00637 kcal/mol and -0.00641 kcal/mol	788.131 kg/m3 and 788.126 kg/m3
x1 = 0.005205	-0.0096 kcal/mol	788.964 kg/m3
x1 = 0.005206	-0.00957 kcal/mol	788.971 kg/m3
x1 = 0.006928	-0.0128 kcal/mol	789.788 kg/m3
x1 = 0.006929	-0.0127 kcal/mol	789.802 kg/m3
x1 = 0.008643	-0.0159 kcal/mol	790.602 kg/m3
x1 = 0.008647	-0.0159 kcal/mol	790.625 kg/m3
x1 = 0.01035	-0.019 kcal/mol	791.405 kg/m3
x1 = 0.01036	-0.019 kcal/mol	791.414 kg/m3

Cc1cccc(C)n1 [2,6-dimethylpyridine] + O
Details	excess molar enthalpy, [2] [kcal/mol]	mass density, [3] [kg/m3]
x1 = 0.000772	-0.00277	996.946
x1 = 0.000773	-0.00281	996.945
x1 = 0.001543	-0.00565	996.862
x1 = 0.001544	-0.00567	996.861
x1 = 0.002312	-0.00855	996.792
x1 = 0.002314	-0.0086	996.791
x1 = 0.00308	-0.0115	996.732
x1 = 0.003083	-0.0115	996.734
x1 = 0.003847	-0.0144	996.685
x1 = 0.003851	-0.0144	996.684
x1 = 0.004615	-0.0173	996.644
x1 = 0.004618	-0.0173	996.644

Cc1cccnc1 [3-methylpyridine]
Details	mass density [kg/m3]
[1]	952.61

Cc1cccnc1 [3-methylpyridine] + CO
Details	excess molar enthalpy, [2] [kcal/mol]	mass density, [3]
x1 = 0.002075	–	787.397 kg/m3
x1 = 0.004143	-0.00457	788.32 kg/m3
x1 = 0.004144	-0.00455	788.293 kg/m3
x1 = 0.006201	-0.00684	789.24 kg/m3
x1 = 0.006203	-0.00681	789.213 kg/m3
x1 = 0.008251	-0.00912	790.158 kg/m3
x1 = 0.008253	-0.00905	790.117 kg/m3
x1 = 0.01029	-0.0113	791.057 kg/m3 and 791.007 kg/m3
x1 = 0.01232	-0.0135	791.892 kg/m3

Cc1cccnc1 [3-methylpyridine] + O
Details	excess molar enthalpy, [2]	mass density, [3]
x1 = 0.000922	-0.00213 kcal/mol and -0.00212 kcal/mol	997.03 kg/m3 and 997.031 kg/m3
x1 = 0.001842	-0.00422 kcal/mol and -0.0042 kcal/mol	997.017 kg/m3 and 997.018 kg/m3
x1 = 0.00276	-0.00626 kcal/mol	997.008 kg/m3
x1 = 0.002761	-0.00629 kcal/mol	997.007 kg/m3
x1 = 0.003677	-0.00828 kcal/mol	996.999 kg/m3
x1 = 0.003678	-0.00833 kcal/mol	996.998 kg/m3
x1 = 0.004592	-0.0103 kcal/mol	996.991 kg/m3
x1 = 0.004594	-0.0103 kcal/mol	996.989 kg/m3
x1 = 0.005507	-0.0122 kcal/mol	996.982 kg/m3
x1 = 0.005509	-0.0122 kcal/mol	996.98 kg/m3

Cc1ccncc1 [4-methylpyridine]
Details	mass density [kg/m3]
[1]	949.87

Cc1ccncc1 [4-methylpyridine] + CO
Details	excess molar enthalpy, [2]	mass density, [3]
x1 = 0.004138	-0.00498 kcal/mol	788.325 kg/m3
x1 = 0.004139	-0.00496 kcal/mol	788.319 kg/m3
x1 = 0.006195	-0.00746 kcal/mol and -0.00747 kcal/mol	789.246 kg/m3 and 789.247 kg/m3
x1 = 0.008243	-0.00988 kcal/mol	790.15 kg/m3
x1 = 0.008244	-0.00991 kcal/mol	790.152 kg/m3
x1 = 0.01028	-0.0123 kcal/mol	791.066 kg/m3 and 791.039 kg/m3
x1 = 0.01231	-0.0146 kcal/mol	791.923 kg/m3
x1 = 0.01232	-0.0146 kcal/mol	791.924 kg/m3
